Results published in BindingDB's records for doi:10.1021/cb0500042 (Suny Stony Brook, 2006).

Experiments:
[1] = molecular target: T1, Enoyl-[acyl-carrier-protein] reductase [NADH] (Mycobacterium tuberculosis (strain ATCC 25618 / H37Rv), UniProt P9WGR1); assay: Measurement of Inhibition Constants; settings: pH 6.8; 22 °C
T1 sequence (P9WGR1 whole entry): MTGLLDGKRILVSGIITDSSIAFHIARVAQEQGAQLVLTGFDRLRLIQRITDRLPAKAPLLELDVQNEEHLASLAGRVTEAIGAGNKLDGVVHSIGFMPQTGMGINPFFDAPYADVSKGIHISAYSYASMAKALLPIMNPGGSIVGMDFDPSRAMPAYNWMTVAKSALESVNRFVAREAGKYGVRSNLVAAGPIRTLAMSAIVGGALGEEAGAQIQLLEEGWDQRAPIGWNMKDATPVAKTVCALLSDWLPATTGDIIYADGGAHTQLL
Method: Inhibition constants (Ki) were calculated by determining the kcat and Km (DDCoA) values at several fixed inhibitor concentrations. The inhibition data were analyzed using the standard equation for uncompetitive inhibition. For compounds with Ki values in the low nanomolar range, initial velocities were determined at a fixed substrate concentration and the data were fit to the equation: vi/v0 = (Km + S)/(Km + S[1 + I/ Ki]). Where vi and v0 are the initial velocities in the presence and absence of inhibitor. […] Data fitting was performed using Grafit 4.0 (Erithacus Software Ltd.).

[2] = molecular target: T1, Enoyl-[acyl-carrier-protein] reductase [NADH]; assay: Enoyl-CoA Reductase Inhibition Assay; settings: pH 6.8; 22 °C
Method: The assay measured the NADH-dependent catalysis of a DD-CoA substrate as a decrease in 340 nm absorbance resulting from conversion of NADH to NAD. The absorbance OD readings were taken on a microreader. The IC50 values were determined using at least eight concentrations, with each concentration assayed in triplicate under saturating substrate conditions. The values were calculated from plots of enzyme activity versus the log of the inhibitor concentration using the GraFit IC50 four-parameter fit software.

CCCCCc1ccc(Oc2ccccc2)c(O)c1 [5-pentyl-2-phenoxylphenol]
Ki [1]: 0.0118 µM

CCCCCCCCCCCCCCc1ccc(Oc2ccccc2)c(O)c1 [2-phenoxy-5-tetradecylphenol]
IC50 [2]: 0.15 µM
Ki [1]: 0.0303 µM

NC(=O)C1=CN([C@@H]2O[C@H](CO[P@@](=O)(O)O[P@@](=O)(O)OC[C@H]3O[C@@H](n4cnc5c(N)ncnc54)[C@H](O)[C@@H]3O)[C@@H](O)[C@H]2O)C=C[C@@H]1C(=O)c1ccncc1 [[[(2R,3S,4R,5R)-5-(6-aminopurin-9-yl)-3,4-dihydroxy-oxolan-2-yl]methoxy-hydroxy-phosphoryl]oxy-[[(2R,3S,4R,5R)-5-[(4S)-3-carbamoyl-4-(pyridine-4-carbonyl)-4H-pyridin-1-yl]-3,4-dihydroxy-oxolan-2-yl]methoxy]phosphinic acid]
Ki [1]: 0.00075 µM

CCCCCCCCc1ccc(Oc2ccccc2)c(O)c1 [5-Octyl-2-phenoxy-phenol]
Ki [1]: 0.0011 µM

CCCCCCc1ccc(Oc2ccccc2)c(O)c1 [5-hexyl-2-phenoxyphenol]
IC50 [2]: 0.011 µM
Ki [1]: 0.0094 µM
